Assay results from US20220372014A1, “NEUROPROTECTIVE COMPOUNDS AND METHODS OF USE THEREOF” (The Johns Hopkins University, priority 2019, published 2022).

How the values were obtained:
[1] = target: T1, MIF (Homo sapiens, UniProt P14174); assay: Nuclease assay of Example 3 (MIF inhibitory activity, Table 4); assay type: biochemical; parameters: (%) inhibition of MIF nuclease activity: concentration or dose not given beside the values; conditions: for (%) inhibition of MIF nuclease activity: nuclease assay of Example 3
T1 sequence (P14174 1-115): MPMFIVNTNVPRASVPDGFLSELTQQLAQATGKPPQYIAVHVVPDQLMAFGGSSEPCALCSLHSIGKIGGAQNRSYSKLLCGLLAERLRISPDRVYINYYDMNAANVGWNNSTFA
In short: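 Human genomic DNA (200 ng), pcDNA (200 ng) or PS^30-type substrates (1 μM) were incubated with MIF (0.25-8 μM final) in 10 mM Tris-HCl pH 7.0, 10 mM MgCl2, 1 mM DTT at 37 °C for 1 h (pcDNA, small substrates) or 4 h (genomic DNA). Cleavage was assessed by agarose or PAGE electrophoresis with EtBr staining and chemiluminescent detection of biotin-labelled DNA.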

[2] = test system: HeLa cells or neuronal cells; assay: Cell death assay of Example 3 (MNNG, alamarBlue; protection against parthanatos, Table 4); assay type: cell-based; conditions: 1 μM test compound; for (%) inhibition of cell death: MNNG-induced cell death, alamarBlue
In short: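 HeLa or neuronal cells (1×10^4/well) were pretreated 1 h at 37° C with 1 μM compound, exposed to MNNG for 15 min, washed, then re-incubated 18 h with 1 μM compound. Viability was read by alamarBlue fluorescence (ex 560/em 590 nm). Cell death was expressed relative to control wells.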

(%) inhibition of MIF nuclease activity [1] [%] | MIF nuclease activity [1] | SMILES | (%) inhibition of cell death [2] [%] | protection against parthanatos (cell death) [2]
29.5 |  | C=CC(=O)OCC(C)(C)C(=O)C(=O)N1CCCC[C@H]1C(=O)O[C@H](CCc1ccc(OC)c(OC)c1)c1cncc(OCC(=O)N(C)[C@@H](C)C(=O)NC(C(=O)N(C)[C@@H](COC(C)(C)C)C(=O)N2CCC[C@H]2C(=O)N(C)CC/C=C\CCO)c2ccccc2)c1 (some centres unmarked) [compound 129] | 43.0 | 
9.4 |  | COc1ccc(CC[C@H]2OC(=O)[C@@H]3CCCCN3C(=O)C(=O)C(C)(C)COC(=O)C=CCCN(C)C(=O)[C@@H]3CCCN3C(=O)[C@H](COC(C)(C)C)N(C)C(=O)C(c3ccccc3)N(C)C(=O)[C@H](C)NC(=O)COc3cccc2c3)cc1OC (some centres unmarked) [compound 137] | 44.5 | 
−4.8 |  | COc1ccc(CC[C@H]2OC(=O)[C@@H]3CCCCN3C(=O)C(=O)C(C)(C)COC(=O)C=CCCN(C)C(=O)[C@@H]3CCCN3C(=O)[C@H](COC(C)(C)C)N(C)C(=O)[C@H](Cc3ccccc3)N(C)C(=O)[C@H](C)NC(=O)COc3cccc2c3)cc1OC [compound 138] | 47.0 | 
0.0 |  | COc1ccc(CC[C@H]2OC(=O)[C@@H]3CCCCN3C(=O)C(=O)C(C)(C)COC(=O)C=CCCN(C)C(=O)[C@@H]3CCCN3C(=O)[C@H](COC(C)(C)C)N(C)C(=O)[C@H](COC(C)(C)C)NC(=O)[C@H](C)N(C)C(=O)COc3cccc2c3)cc1OC [compound 140] | 51.0 | 
9.2 |  | COc1ccc(CC[C@H]2OC(=O)[C@@H]3CCCCN3C(=O)C(=O)C(C)(C)COC(=O)C=CCCN(C)C(=O)[C@@H]3CCCN3C(=O)[C@H](COC(C)(C)C)N(C)C(=O)[C@H](Cc3ccc(O)cc3)N(C)C(=O)[C@H](C)NC(=O)COc3cccc2c3)cc1OC [compound 141] | 46.8 | 
−4.7 |  | COc1ccc(CC[C@H]2OC(=O)[C@@H]3CCCCN3C(=O)C(=O)C(C)(C)COC(=O)C=CCCN(C)C(=O)[C@@H]3CCCN3C(=O)[C@H](COC(C)(C)C)N(C)C(=O)C(Cc3ccc(O)cc3)NC(=O)[C@H](C)NC(=O)COc3cccc2c3)cc1OC (some centres unmarked) [compound 142] | 42.5 | 
−1.1 |  | COc1ccc(CC[C@H]2OC(=O)[C@@H]3CCCCN3C(=O)C(=O)C(C)(C)COC(=O)C=CCCN(C)C(=O)[C@@H]3CCCN3C(=O)[C@H](COC(C)(C)C)N(C)C(=O)[C@H](Cc3ccc(C#N)cc3)NC(=O)[C@H](C)NC(=O)COc3cccc2c3)cc1OC [compound 143] | 46.7 | 

The remaining lines, values behind:

SMILES | (%) inhibition of MIF nuclease activity [1] [%] | MIF nuclease activity [1] | (%) inhibition of cell death [2] [%] | protection against parthanatos (cell death) [2]
COc1ccc(CC[C@H]2OC(=O)[C@@H]3CCCCN3C(=O)C(=O)C(C)(C)COC(=O)C=CCCN(C)C(=O)[C@@H]3CCCN3C(=O)[C@H](COC(C)(C)C)N(C)C(=O)C(c3ccccc3)NC(=O)[C@H](C)N(C)C(=O)COc3ccc(F)c2c3)cc1OC (some centres unmarked) [compound 112] | 19.2 |  | 48.3 | 
COc1cc(CC[C@H]2OC(=O)[C@@H]3CCCCN3C(=O)C(=O)C(C)(C)COC(=O)C=CCCN(C)C(=O)[C@@H]3CCCN3C(=O)[C@H](COC(C)(C)C)N(C)C(=O)C(c3ccccc3)NC(=O)[C@H](C)N(C)C(=O)COc3cccc2c3)c(OC)c(OC)c1 (some centres unmarked) [compound 113] | 26.8 |  | 66.1 | 
COc1ccc(CC[C@H]2OC(=O)[C@@H]3CCCCN3C(=O)C(=O)C(C)(C)COC(=O)C=CCCN(C)C(=O)[C@@H]3CCCN3C(=O)[C@H](COC(C)(C)C)N(C)C(=O)C(c3ccccc3)NC(=O)[C@H](C)N(C)C(=O)COc3cc2ccc3F)cc1OC (some centres unmarked) [compound 114] | −2.4 |  | 44.9 | 
COc1cc(CC[C@H]2OC(=O)[C@@H]3CCCCN3C(=O)C(=O)C(C)(C)COC(=O)C=CCCN(C)C(=O)[C@@H]3CCCN3C(=O)[C@H](COC(C)(C)C)N(C)C(=O)C(c3ccccc3)NC(=O)[C@H](C)N(C)C(=O)COc3cccc2c3)cc(OC)c1OC (some centres unmarked) [compound 115] | 8.7 |  | 47.9 | 
COc1cc(O)c(CC[C@H]2OC(=O)[C@@H]3CCCCN3C(=O)C(=O)C(C)(C)COC(=O)C=CCCN(C)C(=O)[C@@H]3CCCN3C(=O)[C@H](COC(C)(C)C)N(C)C(=O)C(c3ccccc3)NC(=O)[C@H](C)N(C)C(=O)COc3cccc2c3)cc1OC (some centres unmarked) [compound 116] | −4.7 |  | 50.9 | 
COc1ccc(CC[C@H]2OC(=O)[C@@H]3CCCCN3C(=O)C(=O)C(C)(C)COC(=O)C=CCCN(C)C(=O)[C@@H]3CCCN3C(=O)[C@H](COC(C)(C)C)N(C)C(=O)C(c3ccccc3)NC(=O)[C@H](C)N(C)C(=O)COc3cccc2c3)c(F)c1OC (some centres unmarked) [compound 117] | −5.1 |  | 51.8 | 
COc1ccc(CC[C@H]2OC(=O)[C@@H]3CN(C)CCN3C(=O)C(=O)C(C)(C)COC(=O)C=CCCN(C)C(=O)[C@@H]3CCCN3C(=O)[C@H](COC(C)(C)C)N(C)C(=O)C(c3ccccc3)NC(=O)[C@H](C)N(C)C(=O)COc3cccc2c3)cc1OC (some centres unmarked) [compound 118] | 9.0 |  | 50.8 | 
COc1ccc(CC[C@H]2OC(=O)[C@@H]3CCCCN3C(=O)C(=O)C(C)(C)COC(=O)C=CCCN(C)C(=O)[C@@H]3CCCN3C(=O)[C@H](COC(C)(C)C)N(C)C(=O)C(c3ccccc3)NC(=O)[C@H](C)N(C)C(=O)COc3cccc2c3)c(O)c1OC (some centres unmarked) [compound 119] | 19.7 |  | 60.7 | 
COc1cc(CC[C@H]2OC(=O)[C@@H]3CCCCN3C(=O)C(=O)C(C)(C)COC(=O)C=CCCN(C)C(=O)[C@@H]3CCCN3C(=O)[C@H](COC(C)(C)C)N(C)C(=O)C(c3ccccc3)NC(=O)[C@H](C)N(C)C(=O)COc3cccc2c3)cc(O)c1OC (some centres unmarked) [compound 120] | 7.1 |  | 45.8 | 
COc1cc(OC)c(OC)cc1CC[C@H]1OC(=O)[C@@H]2CCCCN2C(=O)C(=O)C(C)(C)COC(=O)C=CCCN(C)C(=O)[C@@H]2CCCN2C(=O)[C@H](COC(C)(C)C)N(C)C(=O)C(c2ccccc2)NC(=O)[C@H](C)N(C)C(=O)COc2cccc1c2 (some centres unmarked) [compound 122] | 10.7 |  | 64.3 | 
COc1ccc(OC)c(OC)c1CC[C@H]1OC(=O)[C@@H]2CCCCN2C(=O)C(=O)C(C)(C)COC(=O)C=CCCN(C)C(=O)[C@@H]2CCCN2C(=O)[C@H](COC(C)(C)C)N(C)C(=O)C(c2ccccc2)NC(=O)[C@H](C)N(C)C(=O)COc2cccc1c2 (some centres unmarked) [compound 123] | −5.1 | do not inhibit MIF nuclease activity | 82.4 | protect against parthanatos
COc1ccc(CC[C@H]2OC(=O)[C@@H]3CCCCN3C(=O)C(=O)C(C)(C)COC(=O)C=CCCN(C)C(=O)[C@@H]3CCCN3C(=O)[C@H](COC(C)(C)C)N(C)C(=O)C(c3ccccc3)NC(=O)[C@H](C)N(C)C(=O)COc3cccc2c3)c(OC)c1OC (some centres unmarked) [compound 124] | −2.7 |  | 55.9 | 
COc1ccc(CC[C@H]2OC(=O)[C@@H]3CCCCN3C(=O)C(=O)C(C)(C)COC(=O)C=CCCN(C)C(=O)[C@@H]3CCCN3C(=O)[C@H](COC(C)(C)C)N(C)C(=O)C(c3ccccc3)NC(=O)[C@H](C)N(C)C(=O)COc3cccc2c3F)cc1OC (some centres unmarked) [compound 125] | 2.4 | do not inhibit MIF nuclease activity | 63.4 | protect against parthanatos
COc1ccc(CC[C@H]2OC(=O)[C@@H]3CCCCN3C(=O)C(=O)C(C)(C)COC(=O)C=CCCN(C)C(=O)[C@@H]3CCCN3C(=O)[C@H](COC(C)(C)C)N(C)C(=O)C(c3ccccc3)NC(=O)[C@H](C)N(C)C(=O)COc3cncc2c3)cc1OC (some centres unmarked) [compound 126] | 6.7 |  | 46.8 | 
COc1ccc(CC[C@H]2OC(=O)[C@@H]3CN(C(=O)OCC4c5ccccc5-c5ccccc54)CCN3C(=O)C(=O)C(C)(C)COC(=O)C=CCCN(C)C(=O)[C@@H]3CCCN3C(=O)[C@H](COC(C)(C)C)N(C)C(=O)C(c3ccccc3)NC(=O)[C@H](C)N(C)C(=O)COc3cccc2c3)cc1OC (some centres unmarked) [compound 127] | 5.0 |  | 46.4 | 
COc1ccc(CC[C@H]2OC(=O)[C@@H]3CNCCN3C(=O)C(=O)C(C)(C)COC(=O)C=CCCN(C)C(=O)[C@@H]3CCCN3C(=O)[C@H](COC(C)(C)C)N(C)C(=O)C(c3ccccc3)NC(=O)[C@H](C)N(C)C(=O)COc3cccc2c3)cc1OC (some centres unmarked) [compound 128] | 11.0 |  | 47.4 | 
